The test system of one series is healthy volunteers. Put plainly: Safety and tolerability, drug-drug interaction part. In kind it is in vivo, human. To be noted: n = 14; for TRAE, Acetaminophen-related: acetaminophen 1000 mg; for TRAE, Rosuvastatin-related: rosuvastatin 10 mg. Here is the method:
This phase 1, randomized, double-blind, placebo-controlled study (NCT06036784) enrolled healthy adults (aged 18-65 years) with a body mass index of 18 to 30 kg/m^2, stable body weight for 3 months or longer, and without diabetes. Potential participants were ineligible if they had type 1 or type 2 diabetes or prediabetes (based on medical history, relevant concomitant medications [including oral or injectable antidiabetic medications], fasting plasma glucose concentrations ≥100 mg/dL or glycated hemoglobin concentrations ≥5.7% [American Diabetes Association thresholds for diabetes and prediabetes ([18])]).
(§1) The DDI portion of the study included 1 cohort of 14 HVs and consisted of 2 study periods. […] Blood samples were also collected to measure clearance of the endogenous biomarker for hepatic OATP inhibition, coproporphyrin-I (CP-I), to assess potential inhibition of OATP1B1/3 by imapextide. […] The primary objective of the DDI portion was to evaluate the PK of rosuvastatin and acetaminophen in the presence and absence of imapextide.
The primary objective of the SAD and MAD portions of the study was to evaluate the safety and tolerability of imapextide; safety was also evaluated in the DDI portion. Safety assessments included incidence and severity of treatment-emergent adverse events (TEAEs), changes in physical examination findings, clinical laboratory abnormalities (serum chemistry, hematology, urinalysis, and coagulation; abnormalities were defined as deviation from the laboratory normal range), and potential effect on vital sign measures. All blood samples for safety analyses were collected after an overnight fast (≥8 hours). If present, data on ISRs were collected using a dedicated form and rated on severity according to the US Food and Drug Administration toxicity scale for vaccines (for details on severity grading, see Supplementary Table S1) ([20], [21]). All ISRs were evaluated, regardless of whether they were reported as TEAEs by the investigator. In the 30-mg-R cohort, participants with ISRs grade 2 or worse underwent a dermatology consultation, including a potential skin biopsy at the discretion of the dermatologist.

The test system of a further series is OATP1B1/OATP1B3. Put plainly: Drug-drug interaction: rosuvastatin PK in presence or absence of imapextide. The class given is in vivo, human. To be noted: plasma, n = 14, statistic in brackets not given.
Text: as §1
Imapextide was also examined as a perpetrator of OATP1B1/3, which would affect the hepatic clearance of rosuvastatin and CP-I. PK assessments for rosuvastatin included Cmax, tmax, AUC from 0 to 72 hours (AUC0-72), and AUCinf. PK assessments for CP-I included Cmax, tmax, AUC0-72, and AUC from 0 to 108 hours (AUC0-108).

Where [1] appears, read: DDI Period 2 (RBX + APAP + Imapextide 45 mg).
Setting [2] is: Period 1 (RBX 10 mg + APAP 1000 mg), no imapextide.
[3] abbreviates: Period 2 (RBX 10 mg + APAP 1000 mg + imapextide 45 mg given 2 days before).

Regarding `CC(=O)Nc1ccc(O)cc1` [Acetaminophen, acetaminophen], the “TRAE, Acetaminophen-related” value with healthy volunteers (DDI Period 1 (RBX + APAP)) and in the series with healthy volunteers (setting [1]) was 0 n (%) throughout.
For `CC(C)c1nc(N(C)S(C)(=O)=O)nc(-c2ccc(F)cc2)c1/C=C/[C@@H](O)C[C@@H](O)CC(=O)O` [Rosuvastatin, rosuvastatin], in the series on healthy volunteers (DDI Period 1 (RBX + APAP)), the “TRAE, Rosuvastatin-related” value was 0 n (%). Further, the “TRAE, Rosuvastatin-related” value in the series with healthy volunteers (setting [1]) was 0 n (%). Moreover, in the series with OATP1B1/OATP1B3 (setting [2]), the AUC0-72 is on record as 27,660 (56.1) h*pg/mL, the AUC0-inf was 36,090 (50.3) h*pg/mL, the Cmax is 2307 (85.1) pg/mL and the tmax is 2.80 (84.7) h. In the series with OATP1B1/OATP1B3 (setting [3]), the AUC0-72 is listed as 31,730 (48.3) h*pg/mL, the AUC0-inf is 32,490 (49.4) h*pg/mL, the Cmax was 2962 (61.9) pg/mL and the tmax is on record as 2.72 (38.1) h.

The values are drawn from PMC13183420, “Sustained Action of Imapextide, A Glucagon-Like Peptide-1 Receptor Antagonist, in Healthy Volunteers” (The Journal of Clinical Endocrinology and Metabolism, 2025).
